# Assay results reported in patent publication US6610747B2, “Phenoxybenzylamine derivatives as SSRIs” (Pfizer Inc., priority 2000, dated 2003).
# Target: T1, human serotonin transporter (hSERT) (Homo sapiens, UniProt P31645)
# T1 construct: expressed in transfected cells; host or cells: HEK-293
# Assay: Inhibition of 3H-serotonin uptake in HEK-293 cells stably transfected with the human serotonin transporter (SRI)
# Format: cell-based
# Details: HEK-293 cells expressing hSERT; 3H-5HT (50 nM); 5 min incubation; room temperature; read-out: serotonin re-uptake inhibition (SRI) IC50
# Experimental: A number of compounds were tested for biological activity by their ability to inhibit the uptake of serotonin by human serotonin transporters as follows.
# Human embryonic kidney cells (HEK-293) stably transfected with either the human serotonin transporter (hSERT), noradrenaline transporter (hNET) or dopamine transporter (hDAT) were cultured under standard cell culture techniques (cells were grown at 37° C. and 5% CO2 in DMEM-culture media (supplemented with 10% dialysed foetal calf serum (FCS), 2mM l-glutamine and 250 μg/ml geneticin)). Cells were harvested for the assay to yield a cell suspension of 750,000 cells/ml.
# (i) Determination of Inhibitor Potency
# All test compounds were dissolved in 100% DMSO and diluted down in assay buffer to give appropriate test concentrations. Assays were carried out in 96-well filter bottom plates. Cells (7500 cells/assay well) were pre-incubated in standard assay buffer containing either test compound, standard inhibitor or compound vehicle (1% DMSO) for 5 minutes. Reactions were started by addition of either ^3H-Serotonin, ^3H-Noradrenaline or ^3H-Dopamine substrates. All reactions were carried out at room temperature in a shaking incubator. Incubation times were 5 minutes for the hSERT and hDAT assays and 15 minutes for the hNET assay. Reactions were terminated by removal of the reaction mixture using a vacuum manifold followed by rapid washing with ice cold assay buffer. The quantity of ^3H-substrate incorporated into the cells was then quantified.
# Assay plates were dried in a microwave oven, scintillation fluid added, and radioactivity measured.
# (iii) Standard Assay Buffer Composition
# Trizma hydrochloride (26 mM)
# Note: The pH of the buffer was adjusted to 7.40 with 1M NaOH before addition of CaCl2 and pargyline.
# (iv) Summary of Assay Parameters
# T1 sequence (P31645 whole entry): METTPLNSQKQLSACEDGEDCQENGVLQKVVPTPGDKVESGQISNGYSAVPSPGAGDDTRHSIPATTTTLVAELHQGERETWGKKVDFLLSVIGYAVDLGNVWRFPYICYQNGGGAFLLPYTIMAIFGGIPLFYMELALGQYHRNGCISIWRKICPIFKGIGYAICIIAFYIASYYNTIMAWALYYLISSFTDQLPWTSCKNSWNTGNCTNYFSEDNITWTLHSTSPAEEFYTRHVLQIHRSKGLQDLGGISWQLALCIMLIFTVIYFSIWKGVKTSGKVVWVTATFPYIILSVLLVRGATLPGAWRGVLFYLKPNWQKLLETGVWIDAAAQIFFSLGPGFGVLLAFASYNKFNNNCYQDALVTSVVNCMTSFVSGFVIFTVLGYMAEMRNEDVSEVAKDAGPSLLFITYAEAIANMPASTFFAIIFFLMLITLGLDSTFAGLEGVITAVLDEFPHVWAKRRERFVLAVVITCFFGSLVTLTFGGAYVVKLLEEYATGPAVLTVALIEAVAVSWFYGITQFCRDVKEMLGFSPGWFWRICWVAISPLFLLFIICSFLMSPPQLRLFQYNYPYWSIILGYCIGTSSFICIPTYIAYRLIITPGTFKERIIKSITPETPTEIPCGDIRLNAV
row,IC50,Structure (SMILES)
1,4.7 nM,"CN(C)Cc1cc(S(N)(=O)=O)ccc1Oc1ccc2c(c1)CCS2 [Example 16, 4-(2,3-dihydro-1-benzothien-5-yloxy)-3-[(dimethylamino)methyl]-benzenesulfonamide]"
2,2 nM,"CN(C)Cc1ccccc1Oc1ccc2ncccc2c1 [Example 29, N,N-dimethyl-N-[2-(6-quinolinyloxy)benzyl]amine]"
3,3.7 nM,"CNCc1cc(C(=O)NC)ccc1Oc1ccc2c(c1)CCS2 [Example 62, 4-(2,3-dihydro-1-benzothien-5-yloxy)-N-methyl-3-[(methylamino)methyl]-benzamide]"
